Data as given in PubChem BioAssay AID328 (DTP/NCI, 2004).
Values joined by “and” are separate entries in the source; they are usually repeats but may differ in a detail not shown here. Equal entries are not always repeated. Inconclusive results and toxic doses are left out. Rule for the calls: active = survival T/C of 150% or more; inactive = T/C below 125% in these data.

Tested on: BDF1 mice, P388 leukemia ip, median survival T/C
Test: NCI In Vivo Anticancer Drug Screen. Data for tumor model P388 Leukemia (intraperitoneal) in B6D2F1 (BDF1) mice
Settings: endpoint: median survival time, higher = longer survival
In short: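 Survival ratio, drug arm over vehicle arm, in mice with a transplanted tumour.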

Measured: T/C

Cc1c(N)nc([C@H](CC(N)=O)NC[C@H](N)C(N)=O)nc1C(=O)N[C@H](C(=O)N[C@H](C)[C@@H](O)[C@H](C)C(=O)N[C@H](C(=O)NCCc1nc(-c2nc(C(=O)NCCC[S+](C)C)cs2)cs1)[C@@H](C)O)C(OC1OC(CO)C(O)C(O)C1OC1OC(CO)C(O)C(OC(N)=O)C1O)c1cnc[nH]1 (stereo partly drawn)
inactive: dose: 0.12 mg/kg/injection, schedule: Q03HX040 (ip), vehicle: saline 101 % of control | dose: 0.5 mg/kg/injection, schedule: Q03HX040 (ip), vehicle: saline 93 % of control | dose: 1.0 mg/kg/injection, schedule: Q01DX005 (ip), vehicle: water 105 % of control | dose: 1.0 mg/kg/injection, schedule: Q01DX009 (ip), vehicle: water 109 % of control | dose: 2.0 mg/kg/injection, schedule: Q01DX009 (ip), vehicle: saline 112 % of control and 115 % of control | dose: 2.0 mg/kg/injection, schedule: Q01DX009 (ip), vehicle: water 109 % of control | dose: 2.0 mg/kg/injection, schedule: Q03HX008 (ip), vehicle: saline 113 % of control | dose: 2.0 mg/kg/injection, schedule: Q03HX016 (ip), vehicle: saline 109 % of control | dose: 2.88 mg/kg/injection, schedule: Q01DX009 (ip), vehicle: saline 103 % of control | dose: 4.0 mg/kg/injection, schedule: Q01DX005 (ip), vehicle: water 107 % of control | dose: 4.0 mg/kg/injection, schedule: Q01DX009 (ip), vehicle: saline 109 % of control and 110 % of control | dose: 4.0 mg/kg/injection, schedule: Q01DX009 (ip), vehicle: water 98 % of control | dose: 4.0 mg/kg/injection, schedule: Q03HX008 (ip), vehicle: saline 109 % of control and 118 % of control | dose: 4.0 mg/kg/injection, schedule: Q03HX024 (ip), vehicle: saline 118 % of control | dose: 4.0 mg/kg/injection, schedule: Q04DX003 (ip), vehicle: other 124 % of control | dose: 4.8 mg/kg/injection, schedule: Q01DX009 (ip), vehicle: saline 115 % of control | dose: 8.0 mg/kg/injection, schedule: Q01DX005 (ip), vehicle: water 107 % of control | dose: 8.0 mg/kg/injection, schedule: Q01DX009 (ip), vehicle: water 100 % of control | dose: 8.0 mg/kg/injection, schedule: Q03HX008 (ip), vehicle: saline 118 % of control | dose: 8.0 mg/kg/injection, schedule: Q03HX016 (ip), vehicle: saline 122 % of control | dose: 8.0 mg/kg/injection, schedule: Q03HX024 (ip), vehicle: saline 104 % of control and 109 % of control | dose: 8.0 mg/kg/injection, schedule: Q04DX003 (ip), vehicle: other 108 % of control | dose: 10.8 mg/kg/injection, schedule: Q01DX009 (ip), vehicle: saline 110 % of control | dose: 12.0 mg/kg/injection, schedule: Q01DX009 (ip), vehicle: saline 117 % of control | dose: 13.0 mg/kg/injection, schedule: Q01DX001 (ip), vehicle: saline 113 % of control | dose: 13.33 mg/kg/injection, schedule: Q01DX009 (ip), vehicle: saline 119 % of control | dose: 13.33 mg/kg/injection, schedule: Q04DX003 (ip), vehicle: saline 100 % of control | dose: 16.0 mg/kg/injection, schedule: Q01DX001 (ip), vehicle: saline 118 % of control and 122 % of control | dose: 16.0 mg/kg/injection, schedule: Q01DX005 (ip), vehicle: water 109 % of control | dose: 16.0 mg/kg/injection, schedule: Q01DX009 (ip), vehicle: water 86 % of control | dose: 16.0 mg/kg/injection, schedule: Q03HX008 (ip), vehicle: saline 90 % of control and 122 % of control | dose: 16.0 mg/kg/injection, schedule: Q03HX016 (ip), vehicle: saline 104 % of control | dose: 18.0 mg/kg/injection, schedule: Q01DX009 (ip), vehicle: saline 95 % of control and 98 % of control | dose: 20.0 mg/kg/injection, schedule: Q01DX001 (ip), vehicle: saline 113 % of control | dose: 22.22 mg/kg/injection, schedule: Q04DX003 (ip), vehicle: saline 106 % of control | dose: 30.0 mg/kg/injection, schedule: Q01DX001 (ip), vehicle: saline 109 % of control | dose: 30.0 mg/kg/injection, schedule: Q01DX009 (ip), vehicle: saline 86 % of control | dose: 32.0 mg/kg/injection, schedule: Q01DX001 (ip), vehicle: saline 122 % of control | dose: 32.0 mg/kg/injection, schedule: Q04DX003 (ip), vehicle: other 101 % of control | dose: 32.0 mg/kg/injection, schedule: Q04DX003 (ip), vehicle: saline 100 % of control | dose: 32.0 mg/kg/injection, schedule: Q08DX002 (ip), vehicle: saline 109 % of control | dose: 37.0 mg/kg/injection, schedule: Q04DX003 (ip), vehicle: saline 110 % of control | dose: 44.0 mg/kg/injection, schedule: Q01DX001 (ip), vehicle: saline 113 % of control and 118 % of control | dose: 61.7 mg/kg/injection, schedule: Q04DX003 (ip), vehicle: saline 105 % of control | dose: 64.0 mg/kg/injection, schedule: Q01DX001 (ip), vehicle: saline 104 % of control and 118 % of control | dose: 64.0 mg/kg/injection, schedule: Q01DX009 (ip), vehicle: saline 95 % of control | dose: 64.0 mg/kg/injection, schedule: Q04DX003 (ip), vehicle: saline 109 % of control | dose: 64.0 mg/kg/injection, schedule: Q08DX002 (ip), vehicle: saline 122 % of control | dose: 67.0 mg/kg/injection, schedule: Q01DX001 (ip), vehicle: saline 113 % of control | dose: 100.0 mg/kg/injection, schedule: Q01DX001 (ip), vehicle: saline 108 % of control | dose: 128.0 mg/kg/injection, schedule: Q01DX001 (ip), vehicle: saline 118 % of control | dose: 128.0 mg/kg/injection, schedule: Q04DX003 (ip), vehicle: saline 100 % of control | dose: 128.0 mg/kg/injection, schedule: Q08DX002 (ip), vehicle: saline 104 % of control and 118 % of control
